Literature values, collected in US5179102A, “Naphthyridinyl/naphthyridinylalkyl-n-terminal anino hydroxy β-amino acid derivatives” (G. D. Searle & Co., priority 1991, dated 1993).
Square brackets hold non-standard residues; d marks the D form. Peptide text beside a SMILES is read from it. * marks the point of attachment. Sta = CC(C)C[C@H](N)[C@@H](O)CC(=O)O; Isovaleryl = CC(C)CC(=O)*

Tested on: hog renin
Conditions: after the injection of hog renin into nephrectomized rats

SMILES: CC(C)CC(=O)N[C@H](C(=O)N[C@H](C(=O)N[C@@H](CC(C)C)[C@@H](O)CC(=O)N[C@@H](C)C(=O)N[C@@H](CC(C)C)[C@@H](O)CC(=O)O)C(C)C)C(C)C [pepstatin] (Isovaleryl-VV[Sta]A[Sta]-OH)
- reduce blood pressure in vivo: found to reduce blood pressure in vivo
